According to BindingDB's records for doi:10.1021/np200036v (National Engineering Research Center For The Emergency …, 2020):

Tests used:
[1] = molecular target: Receptor-type tyrosine-protein phosphatase beta (Homo sapiens, UniProt P23467); assay: Inhibition of recombinant human PTPbeta using DiFMUP as substrate preincubated for 10 mins followed by substrate addition and measured after 2 hrs
[2] = molecular target: T1, Tyrosine-protein phosphatase non-receptor type 11 (Homo sapiens, UniProt Q06124); assay: Inhibition of recombinant SHP2 (unknown origin)
T1 sequence (Q06124 whole entry): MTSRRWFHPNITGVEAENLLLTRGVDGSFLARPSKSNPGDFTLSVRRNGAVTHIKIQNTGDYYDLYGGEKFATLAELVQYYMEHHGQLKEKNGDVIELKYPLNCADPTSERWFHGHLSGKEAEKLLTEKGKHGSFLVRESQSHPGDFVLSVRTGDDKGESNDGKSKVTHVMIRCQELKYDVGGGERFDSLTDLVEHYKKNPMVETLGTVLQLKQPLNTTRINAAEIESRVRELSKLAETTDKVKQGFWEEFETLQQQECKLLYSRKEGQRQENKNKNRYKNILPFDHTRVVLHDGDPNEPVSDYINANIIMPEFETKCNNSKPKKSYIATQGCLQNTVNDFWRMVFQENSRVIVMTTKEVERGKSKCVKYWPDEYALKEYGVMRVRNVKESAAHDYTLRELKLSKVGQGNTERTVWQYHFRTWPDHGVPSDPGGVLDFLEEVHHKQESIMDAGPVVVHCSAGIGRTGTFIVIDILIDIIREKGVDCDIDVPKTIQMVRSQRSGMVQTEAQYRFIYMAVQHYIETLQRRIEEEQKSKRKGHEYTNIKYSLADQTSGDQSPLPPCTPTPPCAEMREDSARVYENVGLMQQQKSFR

[3] = molecular target: Receptor-type tyrosine-protein phosphatase F (Homo sapiens, UniProt P10586); assay: Inhibition of recombinant LAR (unknown origin)
[4] = molecular target: T2, Tyrosine-protein phosphatase non-receptor type 2 (Homo sapiens, UniProt P17706); assay: Inhibition of recombinant TC-PTP (unknown origin)
T2 sequence (P17706 whole entry): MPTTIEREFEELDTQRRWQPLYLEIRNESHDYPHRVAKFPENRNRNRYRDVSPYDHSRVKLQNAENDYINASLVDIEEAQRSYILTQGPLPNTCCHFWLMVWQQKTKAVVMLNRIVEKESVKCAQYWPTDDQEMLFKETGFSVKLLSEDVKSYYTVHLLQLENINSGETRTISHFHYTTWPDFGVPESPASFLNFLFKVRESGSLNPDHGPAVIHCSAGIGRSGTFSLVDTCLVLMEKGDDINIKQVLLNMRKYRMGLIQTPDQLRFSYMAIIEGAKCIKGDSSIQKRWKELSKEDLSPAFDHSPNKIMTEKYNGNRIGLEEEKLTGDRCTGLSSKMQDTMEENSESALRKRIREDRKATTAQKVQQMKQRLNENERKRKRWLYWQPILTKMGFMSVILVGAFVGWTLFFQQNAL

[5] = molecular target: T3, Tyrosine-protein phosphatase non-receptor type 1 (Homo sapiens, UniProt P18031); assay: Inhibition of recombinant PTP1B (unknown origin)
T3 sequence (P18031 whole entry): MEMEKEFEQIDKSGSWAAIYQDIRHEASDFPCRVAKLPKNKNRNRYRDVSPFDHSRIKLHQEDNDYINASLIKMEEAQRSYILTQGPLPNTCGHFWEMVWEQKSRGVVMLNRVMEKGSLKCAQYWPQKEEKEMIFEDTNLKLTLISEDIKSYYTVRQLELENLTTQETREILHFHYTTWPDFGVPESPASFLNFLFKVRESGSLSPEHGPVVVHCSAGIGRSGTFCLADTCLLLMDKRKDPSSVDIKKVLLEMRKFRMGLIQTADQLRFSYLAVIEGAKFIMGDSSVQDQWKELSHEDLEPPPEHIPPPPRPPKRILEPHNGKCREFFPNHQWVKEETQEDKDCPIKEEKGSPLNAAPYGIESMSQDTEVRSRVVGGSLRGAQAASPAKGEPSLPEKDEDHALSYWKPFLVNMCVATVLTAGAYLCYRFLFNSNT

Chain of Receptor-type tyrosine-protein phosphatase beta (P23467 whole entry): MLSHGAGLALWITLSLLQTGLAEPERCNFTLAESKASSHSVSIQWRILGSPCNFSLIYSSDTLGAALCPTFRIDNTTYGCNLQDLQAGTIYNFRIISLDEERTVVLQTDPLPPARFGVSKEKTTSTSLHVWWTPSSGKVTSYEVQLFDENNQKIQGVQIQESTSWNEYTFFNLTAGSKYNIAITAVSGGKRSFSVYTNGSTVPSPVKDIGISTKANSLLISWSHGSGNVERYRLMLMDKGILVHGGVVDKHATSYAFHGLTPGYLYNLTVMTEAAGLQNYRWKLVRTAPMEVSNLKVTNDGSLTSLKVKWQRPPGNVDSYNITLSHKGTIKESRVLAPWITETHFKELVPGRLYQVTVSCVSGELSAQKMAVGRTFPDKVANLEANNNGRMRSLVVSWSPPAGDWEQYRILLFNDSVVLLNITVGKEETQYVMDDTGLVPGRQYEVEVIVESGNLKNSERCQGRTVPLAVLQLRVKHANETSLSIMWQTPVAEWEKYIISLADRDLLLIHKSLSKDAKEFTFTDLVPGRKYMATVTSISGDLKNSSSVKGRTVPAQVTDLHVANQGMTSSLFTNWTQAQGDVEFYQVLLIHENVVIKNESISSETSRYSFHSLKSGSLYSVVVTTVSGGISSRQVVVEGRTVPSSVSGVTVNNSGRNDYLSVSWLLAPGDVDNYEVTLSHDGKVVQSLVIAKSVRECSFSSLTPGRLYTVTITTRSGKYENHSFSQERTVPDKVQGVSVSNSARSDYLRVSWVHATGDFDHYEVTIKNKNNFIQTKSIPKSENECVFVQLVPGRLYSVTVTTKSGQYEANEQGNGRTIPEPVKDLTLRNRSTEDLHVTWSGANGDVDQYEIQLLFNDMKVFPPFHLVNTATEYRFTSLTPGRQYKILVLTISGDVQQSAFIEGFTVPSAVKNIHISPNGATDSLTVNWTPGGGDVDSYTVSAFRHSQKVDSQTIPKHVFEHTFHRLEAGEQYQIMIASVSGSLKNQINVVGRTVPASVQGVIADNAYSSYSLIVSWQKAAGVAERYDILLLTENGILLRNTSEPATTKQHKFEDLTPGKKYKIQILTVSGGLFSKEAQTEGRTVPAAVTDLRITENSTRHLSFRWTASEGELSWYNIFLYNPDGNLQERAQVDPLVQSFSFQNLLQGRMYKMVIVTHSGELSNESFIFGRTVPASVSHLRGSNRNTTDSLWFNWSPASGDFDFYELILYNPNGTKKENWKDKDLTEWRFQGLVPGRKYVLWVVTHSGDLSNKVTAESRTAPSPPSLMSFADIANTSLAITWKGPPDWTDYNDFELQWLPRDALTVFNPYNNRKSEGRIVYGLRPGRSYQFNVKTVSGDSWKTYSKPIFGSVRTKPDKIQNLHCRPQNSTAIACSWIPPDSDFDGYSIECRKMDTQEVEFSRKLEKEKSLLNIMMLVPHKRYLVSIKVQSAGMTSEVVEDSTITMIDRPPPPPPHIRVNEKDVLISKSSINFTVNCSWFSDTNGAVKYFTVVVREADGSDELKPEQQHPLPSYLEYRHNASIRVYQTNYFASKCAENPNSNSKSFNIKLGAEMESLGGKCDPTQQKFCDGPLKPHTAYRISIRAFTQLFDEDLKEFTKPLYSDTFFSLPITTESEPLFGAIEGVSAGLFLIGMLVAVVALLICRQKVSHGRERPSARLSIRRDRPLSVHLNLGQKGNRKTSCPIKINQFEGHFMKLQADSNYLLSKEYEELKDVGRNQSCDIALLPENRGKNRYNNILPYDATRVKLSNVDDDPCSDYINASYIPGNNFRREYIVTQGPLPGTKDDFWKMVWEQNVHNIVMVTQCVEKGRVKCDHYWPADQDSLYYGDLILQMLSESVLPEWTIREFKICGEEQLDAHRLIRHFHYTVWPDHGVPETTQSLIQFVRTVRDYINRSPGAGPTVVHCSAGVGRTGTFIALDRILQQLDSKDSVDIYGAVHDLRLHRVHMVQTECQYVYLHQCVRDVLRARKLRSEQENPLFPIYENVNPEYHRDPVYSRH
Chain of Receptor-type tyrosine-protein phosphatase F (P10586 whole entry): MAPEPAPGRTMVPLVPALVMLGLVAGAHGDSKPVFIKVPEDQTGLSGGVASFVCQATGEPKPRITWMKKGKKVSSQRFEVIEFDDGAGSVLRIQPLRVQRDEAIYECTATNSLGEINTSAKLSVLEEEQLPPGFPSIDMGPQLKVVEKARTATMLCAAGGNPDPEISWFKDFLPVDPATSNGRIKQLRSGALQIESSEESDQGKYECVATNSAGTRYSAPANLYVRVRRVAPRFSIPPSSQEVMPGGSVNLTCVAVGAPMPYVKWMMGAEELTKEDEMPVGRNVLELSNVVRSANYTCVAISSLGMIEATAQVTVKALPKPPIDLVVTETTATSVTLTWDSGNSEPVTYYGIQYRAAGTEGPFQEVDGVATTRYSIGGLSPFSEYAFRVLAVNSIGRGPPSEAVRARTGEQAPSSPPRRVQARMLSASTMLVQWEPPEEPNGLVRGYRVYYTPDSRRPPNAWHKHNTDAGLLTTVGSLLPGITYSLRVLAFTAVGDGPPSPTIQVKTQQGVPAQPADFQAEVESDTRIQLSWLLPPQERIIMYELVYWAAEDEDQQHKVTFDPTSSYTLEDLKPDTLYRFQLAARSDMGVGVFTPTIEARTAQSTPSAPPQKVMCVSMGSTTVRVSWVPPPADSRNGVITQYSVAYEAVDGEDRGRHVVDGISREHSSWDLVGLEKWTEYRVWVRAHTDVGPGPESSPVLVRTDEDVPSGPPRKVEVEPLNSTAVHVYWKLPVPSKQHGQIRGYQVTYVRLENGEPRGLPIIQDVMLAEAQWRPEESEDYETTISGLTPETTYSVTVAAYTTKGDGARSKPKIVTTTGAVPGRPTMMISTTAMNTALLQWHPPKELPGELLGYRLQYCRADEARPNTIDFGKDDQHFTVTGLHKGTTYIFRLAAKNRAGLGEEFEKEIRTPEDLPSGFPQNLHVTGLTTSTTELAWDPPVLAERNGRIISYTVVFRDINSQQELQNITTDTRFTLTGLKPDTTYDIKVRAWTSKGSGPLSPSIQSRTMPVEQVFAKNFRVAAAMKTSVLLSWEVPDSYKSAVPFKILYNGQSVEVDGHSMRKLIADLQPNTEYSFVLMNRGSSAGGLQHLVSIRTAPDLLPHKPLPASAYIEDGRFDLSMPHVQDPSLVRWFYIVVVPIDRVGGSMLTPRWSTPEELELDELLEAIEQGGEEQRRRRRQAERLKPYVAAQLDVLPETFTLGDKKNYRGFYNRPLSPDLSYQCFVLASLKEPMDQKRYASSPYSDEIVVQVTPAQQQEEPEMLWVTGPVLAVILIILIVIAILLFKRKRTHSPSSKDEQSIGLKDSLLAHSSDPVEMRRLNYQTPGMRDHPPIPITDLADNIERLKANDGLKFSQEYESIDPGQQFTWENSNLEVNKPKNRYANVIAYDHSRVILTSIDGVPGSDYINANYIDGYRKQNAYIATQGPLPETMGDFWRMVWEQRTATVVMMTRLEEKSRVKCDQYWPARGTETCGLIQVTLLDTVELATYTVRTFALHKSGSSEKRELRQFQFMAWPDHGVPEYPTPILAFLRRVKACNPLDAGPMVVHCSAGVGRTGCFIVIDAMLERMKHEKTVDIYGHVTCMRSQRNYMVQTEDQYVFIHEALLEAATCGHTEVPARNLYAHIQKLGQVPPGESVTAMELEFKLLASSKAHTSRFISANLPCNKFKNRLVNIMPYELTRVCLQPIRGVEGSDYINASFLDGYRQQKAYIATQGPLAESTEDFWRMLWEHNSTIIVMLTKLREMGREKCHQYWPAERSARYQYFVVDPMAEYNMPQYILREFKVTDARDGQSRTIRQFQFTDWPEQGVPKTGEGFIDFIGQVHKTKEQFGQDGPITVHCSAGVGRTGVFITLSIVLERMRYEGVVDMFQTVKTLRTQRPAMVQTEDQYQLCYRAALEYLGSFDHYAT

Compound	IC50 [1]	IC50 [2]	IC50 [3]	IC50 [4]	IC50 [5]
O=C(c1ccccc1Cl)N(Cc1ccc(NS(=O)(=O)O)cc1)c1nc(-c2cccs2)cs1	5.94 µM				
COC(=O)N[C@@H](Cc1ccccc1)C(=O)N(Cc1ccc(NS(=O)(=O)O)cc1)c1nc(-c2cccs2)cs1	6.61 µM				
O=C(COc1ccc(Cl)cc1Cl)N(Cc1ccc(NS(=O)(=O)O)cc1)c1ccccc1	1.68 µM				
O=C(c1cccnc1Cl)N(Cc1ccc(NS(=O)(=O)O)cc1)c1nc(-c2ccccc2)cs1	2.98 µM	19.6 µM	42.3 µM	32.8 µM	22.2 µM
O=C(Cc1cccc(F)c1)N(Cc1ccc(NS(=O)(=O)O)cc1)c1nc(-c2ccccc2)cs1	4.1 µM				
O=S(=O)(O)Nc1ccc(CN(c2nc(-c3cccs3)cs2)S(=O)(=O)c2cccc(Cl)c2)cc1	1.75 µM				
O=[N+]([O-])c1ccc(CNc2ccccc2)cc1		55.3 µM	76.4 µM	20.1 µM	15.7 µM
COc1ccc(S(=O)(=O)N(Cc2ccc(NS(=O)(=O)O)cc2)c2nc(-c3ccccc3)cs2)cc1	2.07 µM				
COc1ccc(S(=O)(=O)N(Cc2ccc(NS(=O)(=O)O)cc2)c2nc(-c3cccs3)cs2)cc1	1.81 µM				
CC(C)(C)OC(=O)N1CCC(C(=O)N(Cc2ccc(NS(=O)(=O)O)cc2)c2ccccc2)CC1	1.45 µM	24.7 µM	112 µM	102 µM	123 µM
CC(C)(C)OC(=O)N1CCC(C(=O)N(Cc2ccc(NS(=O)(=O)O)cc2)c2nc(-c3ccccc3)cs2)CC1	6.4 µM				
O=C(Cc1cccc(F)c1)N(Cc1ccc(NS(=O)(=O)O)cc1)c1ccccc1	1.72 µM				
O=S(=O)(O)Nc1ccc(CN(c2nc(-c3ccccc3)cs2)S(=O)(=O)c2cccc(F)c2)cc1	1.24 µM				
O=S(=O)(O)Nc1ccc(CNc2nc(-c3cccs3)cs2)cc1	0.995 µM	25.6 µM	130 µM	> 250 µM	> 250 µM
COc1cccc(S(=O)(=O)N(Cc2ccc(NS(=O)(=O)O)cc2)c2nc(-c3ccccc3)cs2)c1	0.968 µM	6.41 µM	34.8 µM	31.3 µM	20.5 µM
O=S(=O)(O)Nc1ccc(CN(c2nc(-c3cccs3)cs2)S(=O)(=O)c2cccc(F)c2)cc1	1.07 µM				
COC(=O)N[C@@H](Cc1ccccc1)C(=O)N(Cc1ccc(NS(=O)(=O)O)cc1)c1nc(-c2ccccc2)cs1	3.46 µM				
O=C(c1ccccc1Cl)N(Cc1ccc(NS(=O)(=O)O)cc1)c1nc(-c2ccccc2)cs1	4.67 µM				
COc1cccc(S(=O)(=O)N(Cc2ccc(NS(=O)(=O)O)cc2)c2nc(-c3cccs3)cs2)c1	1.41 µM				
O=C(Cc1ccc(Br)c(F)c1)N(Cc1ccc(NS(=O)(=O)O)cc1)c1ccccc1	1.78 µM				
O=S(=O)(O)Nc1ccc(CN(c2nc(-c3ccccc3)cs2)S(=O)(=O)c2cccc(Cl)c2)cc1	1.32 µM				
COC(=O)N[C@@H](Cc1ccccc1)C(=O)N(Cc1ccc(NS(=O)(=O)O)cc1)c1ccccc1	3.42 µM				
